Data: patent US20120164729A1, “COMPOSITION FOR CULTURING PLURIPOTENT STEM CELLS AND USE THEREOF” (NATIONAL UNIVERSITY CORPORATION CHIBA UNIVERSITY, priority 2010, published 2012)

Tests used:
Format in all cases: cell-based, human
[1] = test system: 201B7 cells; assay: Effect of activin A on differentiation of embryoid bodies formed by hanging drop culture (microscopic observation); conditions: activin A 100 ng/mL instead of bFGF; at least 14 days after the initiation of culture; Matrigel-coated plate
Method: Cell culture was carried out using cells of strain HPS0001 201B7, which are human induced pluripotent stem cells (iPS cells), obtained from RIKEN BioResource Center, Cell Bank. The cell culture was carried out in a humidified chamber at 37° C. under the conditions of 5% CO2 using, as a medium, Dulbecco […] (DMEM)-F12 medium (manufactured by Sigma-Aldrich Japan K.K.) supplemented with a knockout serum replacement additive (KSR; manufactured by Life Technologies Japan, Ltd. (final concentration 20%), a 1/100 dilution of 100-times concentrated […] (manufactured by Life Technologies Japan, Ltd.), 2 mM L-glutamine (manufactured by Life Technologies Japan, Ltd.), 0.1 mM 2-mercaptoethanol (manufactured by Sigma-Aldrich Japan K.K.), and 5 ng/mL of basic fibroblast growth factor (bFGF; manufactured by Wako Pure Chemical industries, Ltd.). At this time, 201B7 cell line was proliferated by co-culturing 201B7 cell line on cells of strain SNL76/7, which are mouse-derived fetal fibroblasts proliferated on a culture plate (manufactured by AGC Techno Glass Corp.) treated with mitomycin C (manufactured by Sigma-Aldrich Japan K.K.) and coated with gelatin (manufactured by Sigma-Aldrich Japan K.K.), and the 201B7 cell line was maintained. Also, at the time of subculturing, cells were collected using a CTK solution. […]

[2] = test system: 201B7 cells; assay: Evaluation of cell proliferative capacity by MTS assay; conditions: FIG. 2
Method: The proliferative capacity of 201B7 cells that had been cultured in the presence of activin A was evaluated by an MTS assay.

[3] = test system: 201B7 cells; assay: Confirmation of maintenance of undifferentiation potency by alkaline phosphatase (ALP) staining and phase contrast morphology
Excerpt: It was confirmed by alkaline phosphatase (ALP) staining that the 201B7 cells cultured in the presence of activin A maintained undifferentiation potency. Meanwhile, the photographs on the left side of FIG. 3 are images observed with a phase contrast microscope, and the photographs on the right side are images observed after ALP staining.

[4] = test system: 201B7 cells; assay: Alkaline phosphatase staining of subcultured cells at the 12th passage; conditions: activin A 10 ng/mL, CHIR99021 2 μM, LIF 1000 U/mL
Excerpt: Among the cells that had been subcultured as described above, those subcultured in the presence of activin A alone (A), a combination of activin A+CHIR99021 (AC), and a combination of activin A+CHIR99021+LIF (ACL) were subjected to alkaline phosphatase staining as described above, at the 12th passage. The results are shown in the photographs on the left side of FIG. 5.

[5] = test system: 201B7 cells; assay: Immunostaining of subcultured cells for pluripotency markers (Oct3/4, Nanog, SSEA4, TRA-1-60); conditions: cells subcultured from the 11th passage
Method: Each of the cells at the 11th passage was seeded on a Matrigel-coated 4-well slide glass, and subculture was continued. When the cells reached 70% confluency, the medium was removed, and the cells were washed once with PBS. The cells were immobilized with 4% para-formaldehyde, and then were washed three times with PBS. Meanwhile, in the case of staining for Oct3/4 and Nanog, a permeabilization solution (0.2% Triton X-100 (PBS solution)) was added to the cells, and the cells were left to stand for 15 minutes at room temperature. Subsequently, the cells were washed three times for 5 minutes with a washing buffer (2% FBS (PBS solution)).
Thereafter, primary antibodies diluted with the washing buffer were added to the cells, and the cells were left to stand overnight at 4° C. Meanwhile, the types of the various primary antibodies and the dilution ratios are as follows.
Mouse anti-Oct3/4 antibody (BD Transduction Laboratories): 200 times
Rabbit anti-Nanog antibody (manufactured by ReproCELL Inc.): 1000 times
Mouse anti-SSEA4 antibody (manufactured by Chemicon Corporation): 200 times
Mouse anti-TRA-1-60 antibody (manufactured by Chemicon Corporation): 200 times
Subsequently, the cells were […] three times for 5 minutes with the washing buffer, and then secondary antibodies diluted with the washing buffer were added. The cells were left to stand for one hour at 4° C. […]

Substance: activin A: homodimer of the β chain of inhibin A (βAβA), TGF-β superfamily protein; manufactured by R & D Systems, Inc.
- morphological condition of embryoid bodies [1]: maintained a morphologically undifferentiated condition
- concentration of added activin at which 201B7 cells had proliferative capacity [2]: 3 to 30 ng/mL
- concentration of added activin A at which iPS cells can maintain undifferentiation potency ([3]; ALP staining and morphology): 0.01 to 0.1 µg/mL
- ALP staining ([3]; activin A 1 ng/mL): positive
- cell morphology ([3]; activin A 1 ng/mL): slightly similar to fibroblasts
- ALP staining ([3]; activin A 10 ng/mL): positive
- cell morphology ([3]; activin A 10 ng/mL): maintained an undifferentiated condition
- ALP staining ([3]; activin A 30 ng/mL): positive
- cell morphology ([3]; activin A 30 ng/mL): maintained an undifferentiated condition
- ALP staining ([3]; activin A 100 ng/mL): positive
- cell morphology ([3]; activin A 100 ng/mL): maintained an undifferentiated condition
- ALP staining [4]: positive
- staining of nuclei by anti-Oct3/4 antibody [5]: positively stained
